Here are results for one molecule from paper PMC6697720, “Saturation of acyl chains converts cardiolipin from an antagonist to an activator of Toll-like receptor-4” (Cellular and Molecular Life Sciences: CMLS, 2019).

This experiment concerns primary human monocytes. In words: TNF-α and IL-1β secretion in primary human monocytes incubated with CL. The format is cell-based. Particulars: CL alone, overnight. The method, then: Human monocytes were isolated from PBMCs by immunomagnetic negative selection using the EasySep™ human monocyte enrichment kit without CD16 depletion (STEMCELL™ Technologies).
100.000 of freshly isolated PBMCs or monocytes were mixed with stimulants to a final volume of 160 μL/well in round bottom 96-well plates.
After stimulation, supernatants were collected, centrifuged, and assayed for cytokine secretion, while cells were assayed for viability.
TNF-α and IP-10 were quantified in cell supernatants using DuoSet ELISA kits from R&D Systems and human IL-1β using Instant ELISA™ Kit from Invitrogen, according to the manufacturer’s instructions. Absorbance was read with a BioTek Synergy HT Microplate Readers.
Fig. 3 Saturated but not unsaturated CLs have pro-inflammatory properties. a RAW-Blue™ cells were incubated overnight with the indicated amount of CL or LPS, supernatants were collected, and NF-κB activation quantified via Quanti-Blue™ test and reported here as fold induction as compared to control. Unpaired t test: differences with respect to the control (Ctrl) are not significant if p > 0.05 (no symbol); *p ≤ 0.0007. b Immortalized BMDM cells were incubated overnight with the indicated amount of CL or LPS; supernatants were collected and TNF-α quantified via ELISA assay. c, d Primary human monocytes were incubated overnight with the indicated amount of CL or LPS with or without the NLRP3 inhibitor MCC950, supernatants were collected, and TNF-α and IL-1β were quantified via ELISA assay. Graphs are representative of experiments from six different donors. Unpaired t test: differences with respect to the control (Ctrl) are not significant if p > 0.05 (no symbol); *p ≤ 0.021. Each bar represents the mean + standard deviation of three biological replicates (n = 3). Graphs are representative of at least three independent experiments
C18:0 and C18:2 CLs’ pro-inflammatory activities were validated in primary monocytes isolated from human donor blood. C18:0 CL but not C18:2 CL reproduced LPS activity inducing TNF-α and IL-1β secretion in a dose-dependent manner (Fig. 3c, d).

Regarding `CCCCCCCCCCCCCCCCCC(=O)OC[C@H](COP(=O)(O)OCC(O)COP(=O)(O)OC[C@@H](COC(=O)CCCCCCCCCCCCCCCCC)OC(=O)CCCCCCCCCCCCCCCCC)OC(=O)CCCCCCCCCCCCCCCCC` (some centres unmarked) [C18:0 CL], the IL-1β secretion entry is given as “inducing” and the TNF-α secretion result is given as “inducing”.
